What all share (type): in vivo
For test [1], the system named is Alopecurus myosuroides (ALOMY). Briefly: Example B pre-emergence herbicidal activity, glasshouse pot test. Particulars: 312 h, rate 250 g/ha, evaluated after 13 days, read-out: Pre-emergence activity ALOMY (100=total damage to plant; 0=no damage to plant). On the procedure:
(§1) Seeds of a variety of test species were sown in standard soil in pots. After cultivation for one day (pre-emergence) or after 8 days cultivation (post-emergence) under controlled conditions in a glasshouse (at 24/16° C., day/night; 14 hours light; 65% humidity), the plants were sprayed with an aqueous spray solution derived from the formulation of the technical active ingredient in acetone/water (50:50) solution containing 0.5% Tween 20 (polyoxyethelyene sorbitan monolaurate, CAS RN 9005-64-5). The test plants were then grown in a glasshouse under controlled conditions in a glasshouse (at 24/16° C., day/night; 14 hours light; 65% humidity) and watered twice daily. After 13 days for pre and post-emergence, the test was evaluated (100=total damage to plant; 0=no damage to plant).
(§2) Alopecurus myosuroides (ALOMY), Avena fatua (AVEFA), Setaria faberi (SETFA), Echinochloa crus-galli (ECHCG), Solanum nigrum (SOLNI) and Amaranthus retroflexus (AMARE)

For test [2], the system named is Setaria faberi (SETFA). The test is described as above. Particulars: 312 h, rate 250 g/ha, evaluated after 13 days, read-out: Pre-emergence activity SETFA (100=total damage to plant; 0=no damage to plant). On the procedure: as §1, §2
For test [3], the system named is Avena fatua (AVEFA). The description is as above. The settings on record: 312 h, rate 250 g/ha, evaluated after 13 days, read-out: Pre-emergence activity AVEFA (100=total damage to plant; 0=no damage to plant). On the procedure: as §1, §2
Test [4] concerns Echinochloa crus-galli (ECHCG). The description is as above. Particulars: 312 h, rate 250 g/ha, evaluated after 13 days, read-out: Pre-emergence activity ECHCG (100=total damage to plant; 0=no damage to plant). On the procedure:
as §1, §2

Test [5] relates to Amaranthus retroflexus (AMARE). Described as above. Particulars: 312 h, rate 250 g/ha, evaluated after 13 days, read-out: Pre-emergence activity AMARE (100=total damage to plant; 0=no damage to plant). On the procedure: as §1, §2
Test [6] has as its system Alopecurus myosuroides (ALOMY). The test is described as follows: Example B post-emergence herbicidal activity, glasshouse pot test. The settings on record: 312 h, rate 250 g/ha, evaluated after 13 days, read-out: Post-emergence activity ALOMY (100=total damage to plant; 0=no damage to plant). On the procedure: as §1, §2
The test system of test [7] is Setaria faberi (SETFA). The test is described as above. Particulars: 312 h, rate 250 g/ha, evaluated after 13 days, read-out: Post-emergence activity SETFA (100=total damage to plant; 0=no damage to plant). Here is the method: as §1, §2
The test system of test [8] is Avena fatua (AVEFA). The description is as above. Particulars: 312 h, rate 250 g/ha, evaluated after 13 days, read-out: Post-emergence activity AVEFA (100=total damage to plant; 0=no damage to plant). On the procedure: as §1, §2
Test [9] concerns Echinochloa crus-galli (ECHCG). Described as above. The settings on record: 312 h, rate 250 g/ha, evaluated after 13 days, read-out: Post-emergence activity ECHCG (100=total damage to plant; 0=no damage to plant). Here is the method: as §1, §2
The subject of test [10] is Amaranthus retroflexus (AMARE). The description is as above. The settings on record: 312 h, rate 250 g/ha, evaluated after 13 days, read-out: Post-emergence activity AMARE (100=total damage to plant; 0=no damage to plant). Here is the method:
as §1, §2

Consider `COc1ccc(-c2ccc(Cl)c(F)c2)cc1C1=C(O)C(C)(C)OC(C)(C)C1=O` [Compound A-96], for which the pest or weed control at 250 g/ha in test [1] amounted to 0%; in the test on Setaria faberi (SETFA) [2], 0%; with Avena fatua (AVEFA) [3] it was 0%; in test [4] it was 0%; in test [5], 0%; in [6] it was 50%. Moreover, the pest or weed control at 250 g/ha turned out to be 90% in the test on Setaria faberi (SETFA) [7], 30% with Avena fatua (AVEFA) [8], 100% in test [9] and 0% in test [10].

As for `Cc1cc(C)c(-c2ccc(Cl)cc2)c(C)c1C1=C(O)C(C)(C)OC(C)(C)C1=O` [Compound A-92], the pest or weed control at 250 g/ha is 10% in test [1]; 60% with Setaria faberi (SETFA) [2]; 0% in the test with Avena fatua (AVEFA) [3]; 50% in test [4]; 0% in test [5]; 50% in test [6]. For the same molecule, the pest or weed control at 250 g/ha is 90% in the test on Setaria faberi (SETFA) [7], 0% with Avena fatua (AVEFA) [8], 100% in test [9] and 0% in test [10].

For the molecule `CC(=O)OC1=C(c2cc(-c3ccc(Cl)cn3)ccc2C)C(=O)C(C)(C)OC1(C)C` [Compound D-28], the pest or weed control at 250 g/ha in test [1] amounted to 30%; in the test with Setaria faberi (SETFA) [2], 80%; in the test with Avena fatua (AVEFA) [3] it was 40%; in test [4] it was 20%; in test [5] it was 0%; in test [6] it was 80%. Further, the pest or weed control at 250 g/ha was found to be 80% in the test with Setaria faberi (SETFA) [7], 50% in the test with Avena fatua (AVEFA) [8], 90% in [9] and 0% in [10].

On to `Cc1cc(C)c(-c2ccc(Cl)c(F)c2)c(C)c1C1=C(O)C(C)(C)OC(C)(C)C1=O` [Compound A-97], for which the pest or weed control at 250 g/ha in [1] was found to be 0%; in the test on Setaria faberi (SETFA) [2] it was 60%; in the test on Avena fatua (AVEFA) [3] it was 0%; in test [4], 50%; in [5], 0%; in test [6], 40%. Moreover, the pest or weed control at 250 g/ha in the test on Setaria faberi (SETFA) [7] came to 70%; in the test on Avena fatua (AVEFA) [8], 30%; in [9], 90%; in test [10], 0%.

Take `CCc1ccc(-c2ccc(I)cc2)cc1C1=C(O)C(C)(C)OC(C)(C)C1=O` [Compound A-101]: the pest or weed control at 250 g/ha in test [1] worked out at 70%; in the test on Setaria faberi (SETFA) [2], 100%; in the test with Avena fatua (AVEFA) [3], 100%; in test [4] it was 100%; in test [5] it was 0%; in test [6] it was 100%. The pest or weed control at 250 g/ha turned out to be 100% in the test on Setaria faberi (SETFA) [7], 100% with Avena fatua (AVEFA) [8], 100% in test [9] and 0% in [10].

Turning to `CCc1ccc(-c2ccc(Cl)cc2)cc1C1=C(O)C(C)(C)OC(C)(C)C1=O` [Compound A-4], the pest or weed control at 250 g/ha turned out to be 70% in test [1]; 100% in the test on Setaria faberi (SETFA) [2]; 70% in the test with Avena fatua (AVEFA) [3]; 100% in [4]; 20% in test [5]; 90% in test [6]. The pest or weed control at 250 g/ha with Setaria faberi (SETFA) [7] is 100%; in the test with Avena fatua (AVEFA) [8], 80%; in test [9] it was 100%; in test [10] it was 20%.

As to `CCc1ccc(-c2ccc(Cl)cc2Cl)cc1C1=C(O)C(C)(C)[S+]([O-])C(C)(C)C1=O` (single isomer, unassigned) [Compound C-10], the pest or weed control at 250 g/ha in [1] turned out to be 20%; with Setaria faberi (SETFA) [2] it was 0%; in the test on Avena fatua (AVEFA) [3] it was 20%; in [4], 40%; in [5] it was 0%; in [6], 20%. In addition, the pest or weed control at 250 g/ha in the test on Setaria faberi (SETFA) [7] is 20%; in the test with Avena fatua (AVEFA) [8] it was 50%; in [9] it was 70%; in test [10] it was 0%.

As to `CCc1ccc(-c2ccc(C(F)F)cc2)cc1C1=C(O)C(C)(C)OC(C)(C)C1=O` [Compound A-147], the pest or weed control at 250 g/ha is 100% in test [1]; 70% in the test on Setaria faberi (SETFA) [2]; 60% with Avena fatua (AVEFA) [3]; 100% in test [4]; 0% in [5]; 100% in test [6]. Further, the pest or weed control at 250 g/ha was found to be 70% with Setaria faberi (SETFA) [7], 90% in the test on Avena fatua (AVEFA) [8], 100% in test [9] and 0% in test [10].

For `CCc1ccc(-c2ccc(Cl)cc2C(F)(F)F)cc1C1=C(O)C(C)(C)OC(C)(C)C1=O` [Compound A-72], the pest or weed control at 250 g/ha in test [1] was determined as 0%; in the test on Setaria faberi (SETFA) [2] it was 0%; in the test on Avena fatua (AVEFA) [3] it was 0%; in test [4], 40%; in test [5] it was 0%; in test [6], 20%. Moreover, the pest or weed control at 250 g/ha was determined as 80% in the test with Setaria faberi (SETFA) [7], 0% in the test with Avena fatua (AVEFA) [8], 80% in [9] and 60% in test [10].

In the case of `CCc1ccc(-c2ccc(Cl)c(OC)c2)cc1C1=C(O)C(C)(C)OC(C)(C)C1=O` [Compound A-135], the pest or weed control at 250 g/ha in [1] amounted to 80%; with Setaria faberi (SETFA) [2], 100%; with Avena fatua (AVEFA) [3] it was 100%; in [4], 100%; in [5] it was 0%; in test [6], 100%. Also, the pest or weed control at 250 g/ha with Setaria faberi (SETFA) [7] was determined as 100%; in the test with Avena fatua (AVEFA) [8], 100%; in test [9] it was 100%; in [10] it was 0%.

Regarding `Cc1ccc(-c2ccc(Cl)cc2Cl)cc1C1=C(O)C(C)(C)[S+]([O-])C(C)(C)C1=O` (single isomer, unassigned) [Compound C-7], the pest or weed control at 250 g/ha in [1] was determined as 0%; with Setaria faberi (SETFA) [2], 0%; in the test on Avena fatua (AVEFA) [3], 0%; in test [4], 0%; in test [5], 0%; in [6], 20%. Moreover, the pest or weed control at 250 g/ha in the test on Setaria faberi (SETFA) [7] was 30%; with Avena fatua (AVEFA) [8], 0%; in [9] it was 60%; in test [10] it was 0%.

As for `CCc1ccc(-n2cnc(Cl)c2Cl)cc1C1=C(OC(=O)OC)C(C)(C)OC(C)(C)C1=O` [Compound D-32], the pest or weed control at 250 g/ha worked out at 20% in test [1]; 80% in the test with Setaria faberi (SETFA) [2]; 80% in the test with Avena fatua (AVEFA) [3]; 60% in test [4]; 0% in test [5]; 50% in [6]. In addition, the pest or weed control at 250 g/ha in the test with Setaria faberi (SETFA) [7] stood at 80%; with Avena fatua (AVEFA) [8], 70%; in test [9], 90%; in [10], 0%.

The values above are taken from patent publication US8680012B2, “4-phenyl-pyrane-3,5-diones,4-phenyl-thiopyrane-3,6-diones and cyclohexanetriones as novel herbicides” (Syngenta Crop Protection LLC, priority 2006, dated 2014).
